Series [1] has as its target vesamicol receptor. Nature of the series: Vesamicol receptor binding ([3H]vesamicol). To be noted: for Ki: [3H]vesamicol approx. 5 nM, 24 h equilibration, racemates, read-out: Ki (Inhibitory potency of Spirovesamicols).
Series [2] relates to vesamicol receptor. To be noted: literature, cited from earlier work.
The test system of series [3] is cholinergic neurotransmission. To be noted: Brittain et al, 1969; cited from earlier work.
The subject of a further series is α-adrenoceptor. To be noted: at higher doses; cited from earlier work.
The subject of series [4] is storage and release of neurotransmitter. To be noted: literature; cited from earlier work.
The test system of series [5] is cholinergic neurotransmission. Nature of the series: Pharmacological Activity of Spirovesamicols in Male Swiss Webster Mice (anticholinergic signs and lethality, intraperitoneal). In kind it is in vivo, mouse. To be noted: i.p. As to the method:
In vivo anticholinergic activity was evaluated in Swiss Webster mice. Blockade of cholinergic neurotransmission (or anticholinergic activity) was manifested in a rapidly developing respiratory distress, spasms and paralysis. At lethal doses these symptoms were followed by death within 10-20 min. As evident in Tables 1 and 2, the representative compounds tested were lethal at doses as low as 10 umol/Kg.
Rats and mice were injected intraperitoneally with solutions of the compounds in aqueous EtOH (or aqueous DMSO). […] At lethal doses, death generally occurred within 20 minutes following the injection. LD20 lethal dose for 20% of animals tested; LD40, lethal dose for 40%; LD60, lethal dose for 60%; L100, lethal dose for all animals; NR, no visible pharmacologic reaction; S, sluggishness and reduced locomotor activity; +, mild symptoms of anticholinergic activity; ++, severe signs of anticholinergic activity.

The subject of series [6] is cholinergic neurotransmission. Nature of the series: Pharmacological Activity of Spirovesamicols in Male Wistar Rats (anticholinergic signs and lethality, intraperitoneal). The format is in vivo, rat. To be noted: i.p. As to the method: Rats and mice were injected intraperitoneally with solutions of the compounds in aqueous EtOH (or aqueous DMSO). […] LD20 lethal dose for 20% of animals tested; LD40, lethal dose for 40%; LD60, lethal dose for 60%; L100, lethal dose for all animals; NR, no visible pharmacologic reaction; S, sluggishness and reduced locomotor activity; +, mild symptoms of anticholinergic activity; ++, severe signs of anticholinergic activity.

Broadly, the Ki is a dissociation constant, usually derived from enzyme kinetics or from competition with a known ligand. A word on the Kd: it is the concentration at which binding is half-saturated.

Counter-ions that a name gives are not always drawn.

As to “1'(4-Hydroxy-1-(2-fluorobenzyl)piperidin-3-yl)-spiro[1H-indene-1,4'-piperidine]dihydrochloride [Compound 11f]”, at vesamicol receptor [1], the Ki is 0.248 ± 0.025 nM.
For the compound `O[C@@H]1CCCC[C@H]1N1CCC(c2ccc(Cl)cc2)CC1` (relative stereo) [Compound 1b], the “potency/activity relative to vesamicol, in words” value in the series with vesamicol receptor [2] was “between two and eight times less potent than vesamicol”.
As to `O=[N+]([O-])c1ccc(C2CCN([C@@H]3CCCC[C@H]3O)CC2)cc1` (relative stereo) [Compound 1c], the “potency/activity relative to vesamicol, in words” value in the series on vesamicol receptor [2] was “between two and eight times less potent than vesamicol”.
Regarding `Nc1cccc2c1C[C@@H](N1CCC(c3ccccc3)CC1)[C@H](O)C2` (relative stereo) [Compound 2b], the “potency/activity relative to vesamicol, in words” value with vesamicol receptor [2] is “a potent VR ligand”.
Regarding `O[C@@H]1CCCC[C@H]1N1CCc2ccccc2C1` (relative stereo) [Compound 6a], in the series on vesamicol receptor [2] (less active than vesamicol), the “loss of activity relative to vesamicol” value is listed as 125 times.
With `O=C1NCN(c2ccccc2)C12CCN([C@@H]1CCCC[C@H]1O)CC2` (relative stereo) [Compound 6b], the “potency/activity relative to vesamicol, in words” value in the series with vesamicol receptor [2] was “inactive”.
Take `O[C@@H]1CCCC[C@H]1N1CCC(c2ccccc2)CC1` [(-)-vesamicol, reference compound]: at vesamicol receptor [1] (conditions of this assay, read-out: dissociation constant (kd)), the Kd amounted to 1 nM.
Regarding `OC1CCCCC1N1CCC(c2ccccc2)CC1` (centres unmarked) [Compound 1, 2-(4-phenylpiperidino)cyclohexanol], in series [3], the “effects in laboratory animals” value is “induces respiratory paralysis, spasms and death”. Also, in the series on α-adrenoceptor, the α-adrenoceptor activity entry was “exhibits α-adrenoceptor activity at higher doses”. Besides, in series [4], the “effect on storage and release of neurotransmitter” value was “selectively inhibits the storage and release of neurotransmitter”; the “effect on synthesis of neurotransmitter” value was “without directly affecting the synthesis of this neurotransmitter”. The Ki on vesamicol receptor [1] worked out at 1 nM.
`OC(Cc1ccc(Br)cc1)CN1CCC(c2ccccc2)CC1` (centres unmarked) [Compound 2a]: in the series with vesamicol receptor [2], the “potency/activity relative to vesamicol, in words” value was “equipotent with vesamicol”.
For `COc1ccc2c3c1OC1C(O)C=CC4C(C2)N([C@@H]2CCCC[C@H]2O)CCC341` (some centres unmarked) [Compound 7a], the “potency/activity relative to vesamicol, in words” value in the series with vesamicol receptor [2] was “inactive”.
As to `COc1ccc2c3c1OC1C(=O)CCC4C(C2)N([C@@H]2CCCC[C@H]2O)CCC314` (some centres unmarked) [Compound 7b], the “potency/activity relative to vesamicol, in words” value in the series with vesamicol receptor [2] is “inactive”.
Take `OC1CCCCC1N1CCC2(C=Cc3ccccc32)CC1` (centres unmarked) [Compound 11a, 1'-(2-Hydroxycylohex-1-yl)spiro[1H-indene-1,4'-piperidine]Hydrochloride]: the “Pharmacological Activity” value in series [5] (12.5 umol/Kg) is “+”; in series [5] (25 umol/Kg), “LD40 (lethal dose for 40%)”; in series [5] (50 umol/Kg) it was “LD60 (lethal dose for 60%)”; in series [5] (100 umol/Kg), “LD100”; in series [6] (10 umol/Kg), “+”; in series [6] (22.5 umol/Kg) it was “++”. In addition, in series [6] (45 umol/Kg), the “Pharmacological Activity” value is “LD100”. Moreover, on vesamicol receptor [1], the Ki came to 0.622 ± 0.082 nM.
As to `OC1Cc2ccccc2CC1N1CCC2(C=Cc3ccccc32)CC1` (centres unmarked) [Compound 11b, 1'-(2-Hydroxy-1,2,3,4-tetrahydronaphth-3-yl)-spiro[1H-indene-1,4'-piperidine]Hydrochloride], the “Pharmacological Activity” value is on record as “+” in series [5] (1.25 umol/Kg); “LD20 (lethal dose for 20% of animals tested)” in series [5] (2.5 umol/Kg); “LD20 (lethal dose for 20% of animals tested)” in series [5] (5.0 umol/Kg); “LD40 (lethal dose for 40%)” in series [5] (10 umol/Kg); “LD60 (lethal dose for 60%)” in series [5] (20 umol/Kg); “LD100” in series [5] (40 umol/Kg). Moreover, the “Pharmacological Activity” value in series [6] (1 umol/Kg) is reported as “++”; in series [6] (5 umol/Kg), “LD100”; in series [6] (10 umol/Kg), “LD100”; in series [6] (20 umol/Kg), “LD100”. The Ki on vesamicol receptor [1] amounted to 0.121 ± 0.032 nM.
`OC1CCN(Cc2ccccc2I)CC1N1CCC2(C=Cc3ccccc32)CC1` (centres unmarked) [Compound 11c, 1'-(4-Hydroxy1-(2-iodobenzyl)piperidin-3-yl)-spiro[1H-indene-1,4'-piperidine]dihydrochloride]: at vesamicol receptor [1], the Ki came out at 0.798 ± 0.187 nM.
Same read-out and setting: under `OC1CCN(Cc2cccc(I)c2)CC1N1CCC2(C=Cc3ccccc32)CC1` (centres unmarked) [Compound 11d, 1'-(4-Hydroxy1-(3-iodobenzyl)piperidin-3-yl)-spiro[1H-indene-1,4'-piperidine]dihydrochloride] stands 0.264 ± 0.078 nM; under `OC1CCCCC1N1CCC2(CCCc3ccccc32)CC1` (centres unmarked) [Compound 13a, 3,4-Dihydro-1'-(2-Hydroxycyclohex-1-yl)-spiro[naphthalene-1,4'-piperidine]hydrochloride], 24.2 ± 5.71 nM.
Consider `OC1Cc2ccccc2CC1N1CCC2(CCCc3ccccc32)CC1` (centres unmarked) [Compound 13b, 3,4-Dihydro-1'-(2-hydroxy-1,2,3,4-tetrahydronaphth-3-yl)-spiro[naphthalene-1(2H), 4'-piperidine]hydrochloride], for which the Ki on vesamicol receptor [1] was 18.4 ± 14 nM.
The same measure, in the same setting: under `OC1CCN(Cc2ccccc2I)CC1N1CCC2(CCCc3ccccc32)CC1` (centres unmarked) [Compound 13c, 1'-(1-(2-Iodobenzyl)-4-hydroxypiperidin-3-yl)-3,4-dihydrospiro[naphthalene-1(2H),4'-piperidine]] stands 5.8 ± 1.7 nM.
On to `OC1CCN(Cc2cccc(I)c2)CC1N1CCC2(CCCc3ccccc32)CC1` (centres unmarked) [Compound 13d, 1'-(1-(3-Iodobenzyl)-4-hydroxypiperidin-3-yl)-3,4-dihydrospiro[naphthalene-1(2H),4'-piperidine]], for which the results for the “Pharmacological Activity” value in series [6] (50 umol/Kg) and in series [6] (125 umol/Kg) were “S” and “LD100”, respectively. The Ki on vesamicol receptor [1] is 0.082 ± 0.02 nM. In addition, the “potency relative to vesamicol, in words” value in the series on vesamicol receptor [1] (compared with vesamicol / (-)-vesamicol) is recorded as “at least ten times more potent than (-)-vesamicol”.
As for `OC1CCN(Cc2ccc(F)cc2)CC1N1CCC2(CCCc3ccccc32)CC1` (centres unmarked) [Compound 13f, 1'-(1-(4-fluorobenzyl)-4-hydroxypiperidin-3-yl)-3,4-dihydrospiro[naphthalene-1(2H),4'-piperidine]], at vesamicol receptor [1], the Ki was 2.6 ± 0.9 nM.
Consider `OC1Cc2ccccc2CC1N1CCC2(CC1)C(Br)=Cc1ccccc12` (centres unmarked) [Compound 14, 1'-(2-Hydroxy-1,2,3,4-tetrahydronaphth-3-yl)-spiro[2-bromo-1H-indene-1,4'-piperidine]Hydrochloride], for which the “Pharmacological Activity” value in series [6] (12.5 umol/Kg) was “+”; in series [6] (25 umol/Kg), “LD100”; in series [6] (50 umol/Kg) it was “LD100”. Besides, the “increase in potency on bromine substitution at C2” value with vesamicol receptor [1] (11a vs 14) came out at 20 fold. Also, the Ki at vesamicol receptor [1] stood at 0.038 ± 0.006 nM.
In the case of `OC1Cc2ccccc2CC1N1CCC2(C=Cc3c(Br)cccc32)CC1` (centres unmarked) [Compound 15, 1'-(2-Hydroxy-1,2,3,4-tetrahydronaphth-3-yl)-spiro[4-bromo-1H-indene-1,4'-piperidine]Hydrochloride], in series [6] (50 umol/Kg), the “Pharmacological Activity” value was “+”. The Ki on vesamicol receptor [1] was 0.212 ± 0.063 nM.
On to `OC1Cc2ccccc2CC1N1CCC2(C=Cc3cc(Br)ccc32)CC1` (centres unmarked) [Compound 16, 1'-(2-Hydroxy-1,2,3,4-tetrahydronaphth-3-yl)-spiro[5-bromo-1H-indene-1,4'-piperidine]Hydrochloride], for which the Ki at vesamicol receptor [1] amounted to 1.4 ± 0.3 nM.
As to `OC1Cc2ccccc2CC1N1CCC2(C=Cc3ccc(Br)cc32)CC1` (centres unmarked) [Compound 17, 1'-(2-Hydroxy-1,2,3,4-tetrahydronaphth-3-yl)spiro[6-bromo-1H-indene-1,4'-piperidine]Hydrochloride], the Ki on vesamicol receptor [1] was determined as 0.271 ± 0.056 nM. In the series with vesamicol receptor [1] (in words), the “effect of bromine on potency” value is given as “slight reduction in potency”.
As for `OC1CCN(Cc2cccc(I)c2)CC1N1CCC(c2ccccc2)CC1` (centres unmarked) [MIBT], in the series on vesamicol receptor [2], the “potency/activity relative to vesamicol, in words” value is listed as “potent ligands”.
In the case of `OC1CCNCC1N1CCC(c2ccccc2)CC1` (centres unmarked) [trozamicol], the “potency/activity relative to vesamicol, in words” value in the series on vesamicol receptor [2] is reported as “poor ligand for vesamicol receptor”.

Values taken from patent US5554752A, “Spirovesamicols” (Regents of the University of Minnesota, priority 1995, dated 1996).
